Data from the supplement of paper PMC10307832.

How the values were obtained:
Assay in all cases: relative viability (nuclei count vs DMSO), 5 days (fraction); higher = more cells survive
Kobe2602 + Dasatinib = compound: C1=CC(=CC=C1NC(=S)NNC2=C(C=C(C=C2[N+](=O)[O-])C(F)(F)F)[N+](=O)[O-])F [Kobe2602] + Cc1nc(Nc2ncc(C(=O)Nc3c(C)cccc3Cl)s2)cc(N2CCN(CCO)CC2)n1 [Dasatinib] (partner 0.075 µM)
In short: (§1)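 Dosing by pin tool came one day after lung cancer cell lines were seeded in 1536-well plates, using either one drug or a fixed anchor-drug dose plus five library-drug doses (not always all listed) in √10 steps. After 5 days, nuclei were counted on 4× images. Relative viability is treated-well nuclei count divided by vehicle-well nuclei count, and values are medians of duplicate plates.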

[1] = compound: COc1cc2nccc(Oc3ccc(NC(=O)C4(C(=O)Nc5ccc(F)cc5)CC4)cc3)c2cc1OC [Cabozantinib] + CC(=O)c1c(C)c2cnc(Nc3ccc(N4CCNCC4)cn3)nc2n(C2CCCC2)c1=O [Palbociclib] (partner 0.5 µM)
In short: as §1

[2] = compound: COc1cc2nccc(Oc3ccc(NC(=O)C4(C(=O)Nc5ccc(F)cc5)CC4)cc3)c2cc1OC [Cabozantinib] + CC1(C)CCC(c2ccc(Cl)cc2)=C(CN2CCN(c3ccc(C(=O)NS(=O)(=O)c4ccc(N[C@H](CCN5CCOCC5)CSc5ccccc5)c(S(=O)(=O)C(F)(F)F)c4)cc3)CC2)C1 [Navitoclax] (partner 0.5 µM)
In short: as §1

[3] = compound: COc1cc2nccc(Oc3ccc(NC(=O)C4(C(=O)Nc5ccc(F)cc5)CC4)cc3)c2cc1OC [Cabozantinib] + Nc1nc2[nH]cc(CCc3ccc(C(=O)N[C@@H](CCC(=O)O)C(=O)O)cc3)c2c(=O)[nH]1 [Pemetrexed] (partner 0.2 µM)
In short: as §1

| Cell Line | relative viability (Kobe2602 + Dasatinib; first compound 0.2 µM) | relative viability (Kobe2602 + Dasatinib; first compound 0.6325 µM) | relative viability (Kobe2602 + Dasatinib; first compound 2 µM) | relative viability (Kobe2602 + Dasatinib; first compound 6.325 µM) | relative viability (Kobe2602 + Dasatinib; first compound 20 µM) | relative viability ([1]; first compound 0.02 µM) | relative viability ([1]; first compound 0.06325 µM) | relative viability ([1]; first compound 0.2 µM) | relative viability ([1]; first compound 0.6325 µM) | relative viability ([1]; first compound 2 µM) | relative viability ([2]; first compound 0.02 µM) | relative viability ([2]; first compound 0.06325 µM) | relative viability ([2]; first compound 0.2 µM) | relative viability ([2]; first compound 0.6325 µM) | relative viability ([2]; first compound 2 µM) | relative viability ([3]; first compound 0.02 µM) | relative viability ([3]; first compound 0.06325 µM) | relative viability ([3]; first compound 0.2 µM) | relative viability ([3]; first compound 0.6325 µM) | relative viability ([3]; first compound 2 µM) |
| --- | --- | --- | --- | --- | --- | --- | --- | --- | --- | --- | --- | --- | --- | --- | --- | --- | --- | --- | --- | --- |
| NCI-H2126 | 0.57 | 0.557 | 0.522 | 0.446 | 0.475 | 0.315 | 0.37 | 0.336 | 0.364 | 0.332 | 0.828 | 0.84 | 0.869 | 0.831 | 0.896 | 0.59 | 0.666 | 0.689 | 0.658 | 0.704 |
| NCI-H2170 | 0.632 | 0.544 | 0.496 | 0.558 | 0.592 | 0.408 | 0.407 | 0.355 | 0.369 | 0.438 | 0.579 | 0.611 | 0.559 | 0.652 | 0.62 | 0.28 | 0.264 | 0.247 | 0.274 | 0.311 |
| NCI-H2228 | 0.415 | 0.549 | 0.504 | 0.502 | 0.529 | 0.588 | 1.08 | 0.802 | 0.941 | 0.837 | 0.784 | 0.689 | 0.725 | 0.824 | 0.805 | 0.348 | 0.305 | 0.338 | 0.283 | 0.276 |
| NCI-H2347 | 0.377 | 0.282 | 0.315 | 0.364 | 0.414 | 0.474 | 0.466 | 0.49 | 0.478 | 0.401 | 0.83 | 0.994 | 0.803 | 0.612 | 0.375 | 0.422 | 0.481 | 0.429 | 0.442 | 0.371 |
| NCI-H2405 | 0.24 | 0.211 | 0.215 | 0.228 | 0.228 | 0.509 | 0.568 | 0.568 | 0.569 | 0.519 | – | 1.09 | 0.881 | 0.787 | 0.856 | 0.818 | 1.13 | 1.08 | 1.09 | 1.02 |
| NCI-H3122 | 0.853 | 0.806 | 0.739 | 0.465 | 1 | 0.183 | 0.179 | 0.168 | 0.192 | 0.211 | 0.988 | 1.03 | 0.987 | 1.03 | 1.02 | 0.212 | 0.203 | 0.195 | 0.199 | 0.209 |
| PC-3 [JPC-3] | 1.01 | 0.949 | 0.996 | 0.944 | 0.99 | 0.574 | 0.559 | – | 0.514 | 0.636 | 0.829 | 0.929 | – | 0.784 | 0.868 | 0.971 | 1.43 | – | 1.07 | 1.2 |
| PC-14 | 0.253 | 0.253 | 0.259 | 0.211 | 0.139 | 0.511 | 0.703 | – | 0.516 | 0.417 | 1.06 | 1.09 | – | 0.931 | 0.997 | 0.113 | 0.141 | – | 0.126 | 0.129 |
| RERF-LC-KJ | 0.769 | 0.714 | 0.652 | 0.556 | 0.405 | 1.03 | 1.2 | 0.652 | 0.568 | 1.07 | 1.06 | 1.08 | 0.948 | 0.866 | 0.921 | 0.471 | 0.463 | 0.402 | 0.347 | 0.463 |
| SK-LU-1 | 0.18 | 0.184 | 0.177 | 0.17 | 0.187 | 0.357 | 0.486 | 0.439 | 0.344 | 0.364 | – | 1.09 | 0.967 | 0.852 | 0.988 | 1.1 | 1.1 | 0.9 | 0.926 | 0.9 |
| SK-MES-1 | 0.368 | 0.489 | 0.4 | 0.415 | 0.305 | 0.34 | 0.305 | 0.379 | 0.39 | 0.298 | 1.28 | 1.24 | 1.22 | 1.23 | 1.19 | 1.02 | 1.01 | 1 | 0.904 | 0.937 |
| SW 1573 | 0.473 | 0.655 | 0.58 | 0.483 | 0.243 | 0.422 | 0.456 | 0.364 | 0.39 | 0.308 | 1.04 | 1.17 | 0.887 | 1 | 0.81 | 0.905 | 0.815 | 0.924 | 0.951 | 0.763 |
